From patent US20080132564A1, “MICELLAR DRUG DELIVERY VEHICLES AND PRECURSORS THERETO AND USES THEREOF” (ANGIOTECH INTERNATIONAL AG, priority 2001, published 2008) come the findings set out here.

The nature of series [1]: Solubility of paclitaxel in organic solvents.
Series [2] can be described thus: Recovery of paclitaxel added to polymer mixtures after heating (reverse phase HPLC, UV detection). The class given is physicochemical. As to the method:
The desirability of removing unreacted starting materials and/or acidic reaction by-products can be seen by reference to the data in Table 1. […] According to the data, when paclitaxel is combined with a diblock copolymer having up to 2% residual monomer and up to 0.2 μmol/mg acid content (expressed as the number of protons titrated in a solution prepared by dissolving 1 mg of diblock copolymer in water), after heating, only 95% of the paclitaxel initially added to the mixture could be recovered, as quantified using a reverse phase HPLC assay with UV detection and a taxane optimized C18 column.

`CC(=O)O[C@H]1C(=O)[C@@]2(C)[C@H]([C@H](OC(=O)c3ccccc3)[C@]3(O)C[C@H](OC(=O)[C@H](O)[C@@H](NC(=O)c4ccccc4)c4ccccc4)C(C)=C1C3(C)C)[C@]1(OC(C)=O)CO[C@@H]1C[C@@H]2O` [paclitaxel]: in series [1] (in 1 mL of NMP), the “amount of paclitaxel that may be dissolved in NMP” value amounted to 535 mg. Also, the “amount of paclitaxel that may be dissolved in ethanol” value in series [1] (in ethanol (volume not given)) stood at 26 mg. In series [2] (combined with diblock copolymer having up to 2% residual monomer and up to 0.2 μmol/mg acid content), the “paclitaxel initially added that could be recovered after heating” value is on record as 95%. For the same molecule, the “paclitaxel recovered after heating” value in series [2] (combined with methoxypolyethylene glycol having no measured acidic components and no DL-lactide monomer) stood at 99%. Moreover, the “paclitaxel that could be recovered after heating” value in series [2] (diblock copolymer with greatly reduced quantities of residual monomer and acidic components) was 98%.
